Consider 25 compounds from patent publication US7211572B2 (Japan Tobacco Inc., priority 2003, dated 2007).

In general, IC50 refers to the midpoint of a concentration-inhibition curve.

Where a name gives a salt, the structure may show the parent alone. Some results are limits rather than exact numbers.

This assay has as its target T1, HIV integrase (Human immunodeficiency virus type 1 group M subtype B, UniProt P12497, F1332H).
T1 construct: HIV integrase full length gene; made in house; host or cells: Escherichia coli BL21(DE3), plasmid pET21a-INH
The assay is described as follows: Determination of enzyme (HIV integrase) inhibitory activity. Type of assay: biochemical. Particulars: recombinant HIV integrase (F185H), strand transfer ELISA, absorbance at 450 nm. An outline of the steps: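 Full-length integrase with F185H, expressed in E. coli and purified, was reacted for 60 min at 37 °C with compound and biotinylated donor DNA bound to streptavidin plates. Target DNA was added for 10 min, then anti-digoxigenin-peroxidase detection at A450; IC50 from % inhibition versus enzyme-free blank.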
For orientation: In an ELISA, binding on a coated surface is turned into a signal by an enzyme label.
Consider `O=C(Cc1ccc(F)cc1)Nc1cn2ccn(Cc3cccc(Cl)c3)c(=O)c2c(O)c1=O` [Example 275, N-[2-(3-chlorobenzyl)-9-hydroxy-1,8-dioxo-1,8-dihydro-2H-pyrido[1,2-a]pyrazin-7-yl]-2-(4-fluorophenyl)acetamide], for which the IC50 was less than 10 nM.

In the case of `O=C(NCc1ccccc1)c1cn2c(c(O)c1=O)C(=O)N(Cc1ccc(F)cc1)CC2` [Example 380, N-benzyl-2-(4-fluorobenzyl)-9-hydroxy-1,8-dioxo-1,3,4,8-tetrahydro-2H-pyrido[1,2-a]pyrazine-7-carboxamide], the IC50 lay within 10 to 100 nM.

Turning to `CNC(=O)c1cn2c(c(O)c1=O)C(=O)N(Cc1ccc(F)c(F)c1)CC2` [Example 388, N-methyl-2-(3,4-difluorobenzyl)-9-hydroxy-1,8-dioxo-1,3,4,8-tetrahydro-2H-pyrido[1,2-a]pyrazine-7-carboxamide], the IC50 lay in the range of 100 to 1000 nM.

In the case of `COc1c(Cl)cccc1Cn1ccn2ccc(=O)c(O)c2c1=O` [Example 168, 2-(3-chloro-2-methoxybenzyl)-9-hydroxy-2H-pyrido[1,2-a]pyrazine-1,8-dione hydrochloride], the IC50 fell in the range of 10 to 100 nM.

Consider `CC1Cn2ccc(=O)c(O)c2C(=O)N1Cc1ccc(Cl)c(Cl)c1` (stereo not shown) [Example 3, 2-(3,4-dichlorobenzyl)-9-hydroxy-3-methyl-3,4-dihydro-2H-pyrido[1,2-a]pyrazine-1,8-dione], for which the IC50 fell in the range of 10 to 100 nM.

As for `CC(C)Oc1cc(Cl)ccc1CN1CCn2cc(-c3nccs3)c(=O)c(O)c2C1=O` [Example 358, 2-(4-chloro-2-isopropoxybenzyl)-9-hydroxy-7-(thiazol-2-yl)-3,4-dihydro-2H-pyrido[1,2-a]pyrazine-1,8-dione hydrochloride], the IC50 fell in the range of 10 to 100 nM.

For the compound `O=C1c2c(O)c(=O)ccn2CC(Cc2ccccc2)N1Cc1ccc(Cl)c(Cl)c1` (stereo not shown) [Example 25, 3-benzyl-2-(3,4-dichlorobenzyl)-9-hydroxy-3,4-dihydro-2H-pyrido[1,2-a]pyrazine-1,8-dione], the IC50 was in the range of 10 to 100 nM.

Take `O=c1ccn2c(CO)cn(Cc3ccc(Cl)c(Cl)c3)c(=O)c2c1O` [Example 86, 2-(3,4-dichlorobenzyl)-9-hydroxy-4-hydroxymethyl-2H-pyrido[1,2-a]pyrazine-1,8-dione]: the IC50 is less than 10 nM.

Turning to `O=C(NCc1ccncc1)c1cn2ccn(Cc3cccc(Cl)c3)c(=O)c2c(O)c1=O` [Example 213, N-(pyridin-4-ylmethyl)-2-(3-chlorobenzyl)-9-hydroxy-1,8-dioxo-1,8-dihydro-2H-pyrido[1,2-a]pyrazine-7-carboxamide], the IC50 was in the range of 10 to 100 nM.

Regarding `CN(C)C(=O)c1cn(Cc2cccc(Cl)c2)c(=O)c2c(O)c(=O)ccn12` [Example 97, N,N-dimethyl-2-(3-chlorobenzyl)-9-hydroxy-1,8-dioxo-1,8-dihydro-2H-pyrido[1,2-a]pyrazine-4-carboxamide], the IC50 was in the range of 10 to 100 nM.

Regarding `CNC(=O)CNC(=O)c1cn2ccn(Cc3cccc(Cl)c3)c(=O)c2c(O)c1=O` [Example 195, N-methylcarbamoylmethyl-2-(3-chlorobenzyl)-9-hydroxy-1,8-dioxo-1,8-dihydro-2H-pyrido[1,2-a]pyrazine-7-carboxamide], the IC50 lay in the range of 10 to 100 nM.

Consider `O=C1c2c(O)c(=O)c(-c3cccnc3)cn2CCN1Cc1cccc(Cl)c1F` [Example 328, 2-(3-chloro-2-fluorobenzyl)-9-hydroxy-7-(pyridin-3-yl)-3,4-dihydro-2H-pyrido[1,2-a]pyrazine-1,8-dione hydrochloride], for which the IC50 lay within 10 to 100 nM.

As to `Cn1cccc1C(=O)Nc1cn2ccn(Cc3cccc(Cl)c3)c(=O)c2c(O)c1=O` [Example 296, N-[2-(3-chlorobenzyl)-9-hydroxy-1,8-dioxo-1,8-dihydro-2H-pyrido[1,2-a]pyrazin-7-yl]-1-methyl-1H-pyrrole-2-carboxamide], the IC50 is less than 10 nM.

`CC1(C)CN(Cc2ccc(F)cc2)C(=O)c2c(O)c(=O)c(Br)cn21` [Example 413, 7-bromo-2-(4-fluorobenzyl)-9-hydroxy-4,4-dimethyl-3,4-dihydro-2H-pyrido[1,2-a]pyrazine-1,8-dione hydrochloride]: the IC50 was in the range of 100 to 1000 nM.

For `CC(C)Nc1cn2ccn(Cc3cccc(Cl)c3)c(=O)c2c(O)c1=O` [Example 280, 2-(3-chlorobenzyl)-9-hydroxy-7-isopropylamino-2H-pyrido [1,2-a]pyrazine-1,8-dione hydrochloride], the IC50 is 10 to 100 nM.

In the case of `O=C1c2c(O)c(=O)c(-c3ncccn3)cn2CCN1Cc1cccc(Cl)c1` [Example 271, 2-(3-chlorobenzyl)-9-hydroxy-7-(pyrimidin-2-yl)-3,4-dihydro-2H-pyrido[1,2-a]pyrazine-1,8-dione hydrochloride], the IC50 is 10 to 100 nM.

As for `O=c1ccn2ccn(CCCc3cc(Cl)cc(Cl)c3)c(=O)c2c1O` [Example 80, 2-[3-(3,5-dichlorophenyl)propyl]-9-hydroxy-2H-pyrido[1,2-a]pyrazine-1,8-dione], the IC50 fell in the range of 10 to 100 nM.

On to `O=C1c2c(O)c(=O)cc(COc3ccccc3)n2CCN1Cc1ccc(Cl)c(Cl)c1` [Example 41, 2-(3,4-dichlorobenzyl)-9-hydroxy-6-phenoxymethyl-3,4-dihydro-2H-pyrido[1,2-a]pyrazine-1,8-dione], for which the IC50 lay within 10 to 100 nM.

`O=c1c(S(=O)(=O)c2ccccc2)cn2ccn(Cc3cccc(Cl)c3)c(=O)c2c1O` [Example 237, 7-benzenesulfonyl-2-(3-chlorobenzyl)-9-hydroxy-2H-pyrido [1,2-a]pyrazine-1,8-dione]: the concentration for half-maximal inhibition (IC50) is 10 to 100 nM.

For the compound `O=C1c2c(O)c(=O)c(-c3nccs3)cn2CCN1CCCc1cccc(Cl)c1` [Example 299, 2-[3-(3-chlorophenyl)propyl]-9-hydroxy-7-(thiazol-2-yl)-3,4-dihydro-2H-pyrido[1,2-a]pyrazine-1,8-dione hydrochloride], the IC50 lay within 10 to 100 nM.

As for `CC(C)C(=O)c1cn2c(c(O)c1=O)C(=O)N(Cc1ccc(Cl)c(Cl)c1)CC2` [Example 384, 2-(3,4-dichlorobenzyl)-9-hydroxy-7-isobutyryl-3,4-dihydro-2H-pyrido[1,2-a]pyrazine-1,8-dione], the IC50 was less than 10 nM.

`O=C(NCc1ccco1)c1cn2c(c(O)c1=O)C(=O)N(Cc1ccc(F)cc1)CC2` [Example 411, N-(furan-2-ylmethyl)-2-(4-fluorobenzyl)-9-hydroxy-1,8-dioxo-1,3,4,8-tetrahydro-2H-pyrido[1,2-a]pyrazine-7-carboxamide hydrochloride]: the IC50 lay in the range of 10 to 100 nM.

With `CC(C)(C)C(O)Cc1cc(=O)c(O)c2n1CCN(Cc1ccc(F)cc1)C2=O` (stereo not shown) [Example 422, 2-(4-fluorobenzyl)-9-hydroxy-6-(2-hydroxy-3,3-dimethylbutyl)-3,4-dihydro-2H-pyrido[1,2-a]pyrazine-1,8-dione hydrochloride], the IC50 lay in the range of 10 to 100 nM.

Consider `CC1(C)CN(Cc2ccc(Cl)c(Cl)c2)C(=O)c2c(O)c(=O)ccn21` [Example 4, 2-(3,4-dichlorobenzyl)-9-hydroxy-4,4-dimethyl-3,4-dihydro-2H-pyrido[1,2-a]pyrazine-1,8-dione], for which the IC50 was 10 to 100 nM.

With `CC(C)(C)C(=O)c1cn2ccn(CCCc3c(F)cccc3Cl)c(=O)c2c(O)c1=O` [Example 254, 2-[3-(2-chloro-6-fluorophenyl)propyl]-7-(2,2-dimethylpropionyl)-9-hydroxy-2H-pyrido[1,2-a]pyrazine-1,8-dione hydrochloride], the IC50 is less than 10 nM.
